Assay results from publication PMC5486603, “Toward molecular imaging of the free fatty acid receptor 1” (Acta Diabetologica, 2017).
“Also recorded” adds a separate entry of the source. Each block holds one molecule with its values, some of them ahead of it.

Tests used:
[1] = molecular target: T1, FFAR1 (Homo sapiens, UniProt O14842); assay: In vitro radioligand binding and saturation binding in human islets of Langerhans homogenate; set-up: Isolated endocrine (75–95% islet purity) and exocrine tissues were homogenized in ice-cold 0.32 M sucrose; from tissue; host or cells: human isolated pancreatic islets (75–95% purity), homogenate; settings: for islet-to-exocrine ratio: human islets vs human exocrine tissue; for FFAR1 density by specific binding: isolated human islets of Langerhans
Procedure: (§1) Isolated pancreatic islets and exocrine tissue were obtained within the Nordic network for Clinical Islet Transplantation laboratory in Uppsala, Sweden. The use of human tissue was approved by the Uppsala Ethical Review Board (#2011/473, #Ups 02-577).
(§2) Isolated endocrine (75–95% islet purity) and exocrine tissues were homogenized in ice-cold 0.32 M sucrose by hand using a Dounce glass homogenizer to a final concentration of 6 mg/ml. 50–100 mg INS-1 xenografts were homogenized using a Polytron tissue homogenizer (Polytron® PT 3000, Kinematica AG, Littau-Luzern, Switzerland) in ice-cold 0.32 M sucrose at a concentration of 6 mg/ml and then by hand using a Dounce glass homogenizer. Protein concentration was determined using Bio-Rad Protein Assay (Bio-Rad Laboratories, Hercules, CA) with bovine serum albumin as standard. Aliquots of the homogenates were stored at −80 °C until used.
(§3) One milligram of homogenized endocrine and exocrine tissue and 2 mg insulinoma tissue was incubated for 2 h at room temperature with 2 nM [^3H]AZ1 or 2 nM [^3H]AZ2 and PBS in a final incubation volume of 1 ml. Two milligram insulinoma tissue was incubated for 2 h at room temperature with 4 nM [^3H]TAK-875 and 50 mM TRIS (pH 7.4) in a final incubation volume of 1 ml. All three ligands were dissolved in ethanol. 10 µM of unlabeled AZ1 or TAK-875 was added for determination of non-specific binding. The samples were filtered using a Brandel M-48 cell harvester with Whatman GF/C filter (presoaked with PBS or 50 mM TRIS) and washed four times with 3 ml PBS or 50 mM TRIS (room temperature). Filters were put into scintillation vials, dried for 30 min before adding 10 ml Ultima Gold scintillation fluid (Perkin Elmer, Waltham, MA). The filters were shaken for 60 min and then counted in a β-counter (Packard Scintillator Tri-Carb 2100TR). The K d and B max values for [^3H]AZ1 binding were determined using concentrations of the tritiated ligand from 1 to 20 nM. All assay concentrations were replicated in triplicate, both total binding and non-specific binding.
(§4) The specific binding for each concentration of radiolabeled ligand was calculated by subtracting the non-specific binding (average of three replicates) from the total binding (average of three replicates), and expressed as fmol or pmol/mg protein. The specific binding data were analyzed with curve-fitting software (GraphPad Prism version 5.04) to obtain K d and B max values.

[2] = molecular target: T2, FFAR1 (Rattus norvegicus, UniProt Q8K3T4); assay: In vitro radioligand binding in INS-1 xenograft tissue homogenate; settings: for off-target (non-displaceable) binding: 2 nM [3H]AZ1 or [3H]AZ2, 4 nM [3H]TAK-875, 10 µM unlabeled ligand for non-specific binding; for specific bound radiolabeled ligand (FFAR1 density): 2 nM radiolabeled ligand
T2 construct: 50–100 mg INS-1 xenografts were homogenized using a Polytron tissue homogenizer; from tissue; host or cells: INS-1 (rat insulinoma) xenograft tumours grown subcutaneously in Balbc nu/nu mice, homogenate
Procedure: Rat insulinoma cell line INS-1 xenografts, explanted from immunodeficient mice postmortem, were used as a model of beta cells. Briefly, approximately 2 million INS-1 cells were injected subcutaneously in the right flank of Balbc nu/nu mice. Tumor growth was monitored by palpation, and when tumor diameter was 10 mm, the animals were euthanized and the INS-1 tumor explanted.
as §2, §3, §4

[3] = molecular target: T1, FFAR1; assay: In vitro radioligand binding and saturation binding in human exocrine pancreatic tissue homogenate; set-up: Isolated endocrine (75–95% islet purity) and exocrine tissues were homogenized in ice-cold 0.32 M sucrose; from tissue; host or cells: human exocrine pancreatic tissue, homogenate; settings: for receptor specific binding: human pancreatic exocrine tissue, 2 nM labeled ligand
Procedure: as §1, §2, §3, §4

[4] = set-up: method as in NCT01609582; settings: oral dosing of 50 mg daily, individuals with Type 2 diabetes with cardiovascular risk factors, phase 3; ref NCT01609582; cited from earlier work
[5] = molecular target: mouse GPR40 receptor; set-up: method as in data on file, AstraZeneca; settings: mouse GPR40 overexpressing HEK293 cells, IP-One Tb HTRF; ref data on file, AstraZeneca; cited from earlier work
[6] = human islets, representative saturation binding experiment (Fig. 5a)
[7] = human exocrine tissue, representative saturation binding experiment (Fig. 5b)

T1 sequence (O14842 whole entry): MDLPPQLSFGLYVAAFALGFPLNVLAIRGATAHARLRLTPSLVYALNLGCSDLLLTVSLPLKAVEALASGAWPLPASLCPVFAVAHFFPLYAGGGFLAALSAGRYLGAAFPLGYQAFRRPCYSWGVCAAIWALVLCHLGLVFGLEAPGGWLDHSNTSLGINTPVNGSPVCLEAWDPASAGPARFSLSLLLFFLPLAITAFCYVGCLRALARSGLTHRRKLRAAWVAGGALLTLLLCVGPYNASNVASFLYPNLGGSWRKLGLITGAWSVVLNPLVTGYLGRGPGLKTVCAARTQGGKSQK
T2 sequence (Q8K3T4 whole entry): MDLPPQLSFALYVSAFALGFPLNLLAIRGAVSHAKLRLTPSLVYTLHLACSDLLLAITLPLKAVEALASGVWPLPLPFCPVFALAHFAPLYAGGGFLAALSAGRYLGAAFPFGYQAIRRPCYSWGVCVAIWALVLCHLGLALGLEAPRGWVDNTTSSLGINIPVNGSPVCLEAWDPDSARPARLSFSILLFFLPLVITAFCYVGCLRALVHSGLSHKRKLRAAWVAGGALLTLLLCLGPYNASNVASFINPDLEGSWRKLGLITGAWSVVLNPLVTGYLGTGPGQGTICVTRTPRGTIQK

islet-to-exocrine ratio ([1]; 2 nM labeled ligand): 1.65 | FFAR1 density by specific binding ([1]; 2 nM labeled ligand): approximately 1600 fmol/mg protein | off-target (non-displaceable) binding [2]: decreased | specific bound radiolabeled ligand (FFAR1 density) [2]: 177 fmol/mg protein | receptor specific binding [3]: below 1000 fmol/mg protein
SMILES: [3H]c1cc([3H])c(OCc2nc(-n3cc(C)cn3)nc(N3CCOCC3)c2[3H])cc1Cl [[^3H]AZ2]

SMILES: Cc1cc(OCCCS(C)(=O)=O)cc(C)c1-c1cccc(COc2ccc3c(c2)OC[C@H]3CC(=O)O)c1 [TAK-875, fasiglifam]
side effects [4]: suspected hepatic toxic side effects | EC50 [5]: > 37500 nM

measurement of FFAR1 density ([2]; 4 nM [3H]TAK-875): severely underestimated
SMILES: [3H]c1cc2c(c([3H])c1OCc1cccc(-c3c(C)cc(OCCCS(C)(=O)=O)c([3H])c3C)c1)OC[C@H]2CC(=O)O [[^3H]TAK-875, reference compound]
off-target (non-displaceable) binding [2]: high non-specific off-target binding; also recorded: most off-target binding

higher FFAR1 binding in human islets compared to human exocrine tissue ([1]; 2 nM labeled ligand): 30% | non-specific binding in different pancreatic compartments ([1]; human islets vs exocrine tissue): little difference | islet-to-exocrine ratio ([1]; 2 nM labeled ligand): 1.3 | Bmax [1, 6]: 6.3 pmol/mg protein | Kd [1, 6]: 15.8 nM | Kd ([1]; human islets, saturation binding 1 to 20 nM, n = 3, mean ± SEM): 10.6 ± 1.5 nM | B max ([1]; human islets, saturation binding, n = 3, mean ± SEM): 7.0 ± 2.0 pmol/mg protein | FFAR1 density by specific binding ([1]; 2 nM labeled ligand): approximately 1150 fmol/mg protein | off-target (non-displaceable) binding [2]: decreased; also recorded: least | specific bound radiolabeled ligand (FFAR1 density) [2]: 132 fmol/mg protein | specific binding ([2]; incubation dose 2 nM): approximately 50% | Bmax [3, 7]: 15.8 pmol/mg protein | Kd [3, 7]: 26.4 nM | Kd ([3]; human exocrine tissue, saturation binding 1 to 20 nM, n = 5, mean ± SEM): 19.7 ± 8.4 nM | B max ([3]; human exocrine tissue, saturation binding, n = 5, mean ± SEM): 13.6 ± 2.5 pmol/mg protein | receptor specific binding [3]: below 1000 fmol/mg protein
SMILES: [3H]c1cc([3H])c(OCc2nc(-n3cc(C)cn3)nc(N3CCOCC3)c2[3H])cc1F [[^3H]AZ1]
